Measurements reported in patent US12433863B2, “Pharmaceutical compositions and uses directed to lysosomal storage disorders” (INTRABIO LIMITED, priority 2016, dated 2025).

Key:
[1] = system: wild-type (Npc1^+/+) mice; test: In vivo mouse study in wild-type (Npc1+/+) littermates (weight, gait, motor function)
Method: Wild-type (Npc1^+/+) littermates were used as a control.
Separate groups of Npc1^−/− and Npc1^+/+ mice were left untreated, as controls.
Animals were weighed twice a week. Weights were averaged (mean) across all mice in each group and compared.
Gait analysis was performed on mice at eight weeks of age using a CatWalk® 15.0 system according to manufacturer's instructions (Noldus, Nottingham, UK). Five runs were recorded per animal.
CatWalk® parameters measured were: • 1. Stand Mean: average duration (s) of paws in contact with glass plate; • 2. Step Cycle: duration (s) between two consecutive contacts of the same paw; • 3. Duty Cycle: percentage of time paws in contact with plate compared with time to complete a step cycle; • 4. Step Sequence (AB): percentage of time spent walking in LF-RH-RF-LH alternating pattern (LF: left front; RH: right hind; RF: right front; LH left hind); • 5. Cadence: step per seconds in a trial; • 6. Diagonal Support: percentage of time with simultaneous contact of diagonal paws with the glass plate (RF&LH or RH&LF). Motor Function Analysis
Motor function analysis was performed on mice at eight and nine weeks of age using an Open Field Activity Monitor according to manufacturer's instructions (Linton Instruments, Amlogger Software). Each mouse was placed in a plastic cage with bedding and analysed for five minutes. Rears were counted manually.
Motor function parameters measured were: • 1. Centre Rearing: mice rearing on hind legs unsupported; • 2. Rearing: mice rearing on hind legs with and without the support of cage walls; • 3. Activity: regular movement of the animal including walks; • 4. Front to Back (FR) count: movement of the animal from front to back of the cage; • 5. Active Time: duration (s/min) of activeness regardless of movement; • 6. Mobile Time: duration (s/min) of mobility; • 7. Rearing Time: duration of any rearing.

[2] = system: Sandhoff disease patient fibroblasts; test: Glycosphingolipid (GSL) levels by HPLC in Sandhoff disease patient fibroblasts; type: cell-based, human; conditions: 1 mM for 6 days
[3] = system: AB variant of Tay-Sachs disease patient fibroblasts; test: Glycosphingolipid (GSL) levels by HPLC in AB variant of Tay-Sachs disease patient fibroblasts; type: cell-based, human; conditions: 1 mM for 6 days
[4] = system: patients genetically diagnosed with Tay-Sachs disease; test: Case studies of Tay-Sachs disease patients (SARA, SCAFI, MoCA, mRDS, EQ-5D-5L); type: in vivo, human
From the text: For example, to evaluate overall neurological status, mDRS, a four-domain scale (ambulation, manipulation, language and swallowing), may be applied. Cerebellar function may be evaluated using SARA, an eight-item clinical rating scale (gait, stance, sitting, speech, fine motor function and taxis; range 0-40, where 0 is the best neurological status and 40 the worst), and SCAFI, comprising the 8-m-Walking-Time (8MW; performed by having patients walking twice as quickly as possible from one line to another excluding turning), 9-Hole-Peg-Test (9HPT) and the number of “PATA” repetitions over 10 s. Subjective impairment and quality of life may be evaluated using the EQ-5D-5L questionnaire and VAS. To assess ocular motor function, 3-dimensional videooculography (EyeSeeCam) may be used to measure the peak velocity of saccades, gain of smooth pursuit, peak slow phase velocity of gaze-evoked nystagmus (gaze-holding function), peak slow phase velocity of optokinetic nystagmus, and gain of horizontal vestibulo-ocular reflex. To evaluate the cognitive state, WAIS-R or WISC-IV, and MoCA, assessing different cognitive domains, including attention and concentration, executive functions, memory, language, visuoconstructional skills, conceptual thinking, calculations, and orientation with a maximum of 30 points and a cut-off score of 26, may be used. The skilled person will know how to perform these and other such tests.
In particular, the patient was not able to stand or walk, could do single steps with strong support, had distinct postural instability, ocular movement disorder, dysphagia and dysarthria, and mild cognitive function disorder.
(§1) Before treatment was commenced, examination of the patient indicated a Scale for Assessment and Rating of Ataxia (SARA) score of 15.5/40. In addition, results from the patient's Spinocerebellar Ataxia Functional Index (SCAFI) analysis were: • Mean 8-meters Walking Test (8MW): 21.6 s • MW 9-Hole Pegboard Test Dominant (9HPTD) (right): 48.3 s • MW 9-Hole Pegboard Test Non-Dominant (9HPTND): 44.9 s • MW PATA Word Test: 20 • Montreal Cognitive Assessment (MoCA): 18/30
The day following this examination, the patient was started on therapy with acetyl-leucine, at a dose of 3 g per day for the first week, followed by a dose of 5 g per day for the second week onwards.
In particular, walking was not possible without support, and the patient suffered from dysphagia and speech disorder, ocular movement disorder, and mild cognitive function disorder.
as §1, with “10.5/40.” for “15.5/40.”, “12.5” for “21.6”, “21.5” for “48.3”, “35.5” for “44.9”, “18” for “20”, “21/30” for “18/30”
The day of the examination, the patient was started on therapy with acetyl-leucine at a dose of 3 g per day for the first week, followed by a dose of 5 g per day for the second week onwards.
The patient in this case study was a person who was genetically diagnosed with Tay-Sachs disease and who had epileptic cramps (tonic-clonic, about 10 seconds, self-limiting) almost every day before falling asleep, ocular movement disorder, anarthria, distinct problems in cognitive function and concentration (neurological examination was not possible), was not able to stand or walk by themself, and was very limited in daily activities (eating, washing or dressing themself was not possible).
Before treatment was commenced, examination of the patient indicated a Scale for Assessment and Rating of Ataxia (SARA) score of 36/40, a mRDS score of 18/24, a EQ-5D-5L visual scale of 50, and a 8MWT of 18.1 (only with strong support). […]

[5] = system: patients with cerebellar ataxia; conditions: cited from earlier work
patients with ataxia = conditions: Becker-Bense et al. 2015; cited from earlier work

## CC(=O)NC(CC(C)C)C(=O)O (racemic) [acetyl-DL-leucine]
[1]; 0.1 g/kg from weaning, three to 10 weeks of age
  Effect on weight gain: no significant effect
[1]; 0.1 g/kg, eight weeks of age
  Gait properties versus untreated littermates: no significant difference
[1]; 0.1 g/kg, nine weeks of age
  Motor function properties versus untreated littermates: no significant difference
[2]
  GSL levels (GSL storage): trend towards decreased GSL levels
[3]
  GSL levels (GSL storage): trend towards decreased GSL levels
[4]; Patient 1
  Overall change in symptoms: improvement in symptoms
[4]; Patient 1, 3 g then 5 g per day, after 4 months
  SARA: 17/40
[4]; Patient 1, after 4 months
  MoCA: 22/30
[4]; Patient 1, after four months
  Clinical re-examination findings: stable condition with slightly improved cognitive function but had deterioration of stance, gait and fine motor function
[4]; Patient 1, after one month
  Clinical re-examination findings: improved fine motor skills and reduced hand tremor
  MoCA: 21/30
[4]; Patient 2, 3 g then 5 g per day, after one month
  SARA: 5/40
[4]; Patient 2, after one month
  Clinical re-examination findings: increased enunciation, improved postural stability, and enhanced cognitive function
  MoCA: 25/30
[4]; Patient 3, 1.5 g then 3 g per day, after one month
  SARA: 33/40
[5]; Pelz et al. 2015
  Benefit in cerebellar ataxia, another case series: did not find benefit
[5]; Schniepp et al. 2015
  Temporal gait variability, quantitative gait analysis: improved temporal gait variability
[5]; Strupp et al. 2013
  Cerebellar ataxia symptoms, case series: symptomatic improvement of cerebellar ataxia
Patients with ataxia
  Brain metabolism by PET: increased metabolism in the midbrain and lower brainstem in responders
